Experimental data reported in patent publication US11208397B2, “Small molecule antagonists of sumo related modification of CRMP2 and uses thereof” (Arizona Board of Regents on Behalf of the University of …, priority 2017, dated 2021).
“Also recorded” adds a separate entry of the source. Read-outs that look alike come from different tables or passages of the source.

Tests used:
CRMP2 = CRMP2 (Mus musculus, UniProt O08553); assay: 1D 1H STD NMR binding to CRMP2
Protocol: 1D ^1H STD NMR showing on-resonance spectrum for CRMP2 with probe AZ194. Asterisks correspond to protons. […] NMR was performed on an AVANCE III 400 Mhz specrometer equipped with a Bruker PABBO 400S1 probe and SampleJet carousel that can hold up to 96 NMR tubes. The on-resonance excitation was set at 0.81 ppm (to irradiate protein methyl groups) and off-resonance set to 30 ppm. A 15 ms spin-lock was used to suppress the protein signal, followed by the double PFG spin echo to remove residual water signal. Spectra processing and analysis were performed with Topspin3.1 and MestReNova 7.1.

CaV2.2 = target: T1, CaV2.2 (Rattus norvegicus, UniProt Q02294); assay: Peak CaV2.2 currents in DRGs; type: cell-based; settings: 20 μM
T1 construct: endogenous in cells; host or cells: DRG neurons
T1 sequence (Q02294 whole entry): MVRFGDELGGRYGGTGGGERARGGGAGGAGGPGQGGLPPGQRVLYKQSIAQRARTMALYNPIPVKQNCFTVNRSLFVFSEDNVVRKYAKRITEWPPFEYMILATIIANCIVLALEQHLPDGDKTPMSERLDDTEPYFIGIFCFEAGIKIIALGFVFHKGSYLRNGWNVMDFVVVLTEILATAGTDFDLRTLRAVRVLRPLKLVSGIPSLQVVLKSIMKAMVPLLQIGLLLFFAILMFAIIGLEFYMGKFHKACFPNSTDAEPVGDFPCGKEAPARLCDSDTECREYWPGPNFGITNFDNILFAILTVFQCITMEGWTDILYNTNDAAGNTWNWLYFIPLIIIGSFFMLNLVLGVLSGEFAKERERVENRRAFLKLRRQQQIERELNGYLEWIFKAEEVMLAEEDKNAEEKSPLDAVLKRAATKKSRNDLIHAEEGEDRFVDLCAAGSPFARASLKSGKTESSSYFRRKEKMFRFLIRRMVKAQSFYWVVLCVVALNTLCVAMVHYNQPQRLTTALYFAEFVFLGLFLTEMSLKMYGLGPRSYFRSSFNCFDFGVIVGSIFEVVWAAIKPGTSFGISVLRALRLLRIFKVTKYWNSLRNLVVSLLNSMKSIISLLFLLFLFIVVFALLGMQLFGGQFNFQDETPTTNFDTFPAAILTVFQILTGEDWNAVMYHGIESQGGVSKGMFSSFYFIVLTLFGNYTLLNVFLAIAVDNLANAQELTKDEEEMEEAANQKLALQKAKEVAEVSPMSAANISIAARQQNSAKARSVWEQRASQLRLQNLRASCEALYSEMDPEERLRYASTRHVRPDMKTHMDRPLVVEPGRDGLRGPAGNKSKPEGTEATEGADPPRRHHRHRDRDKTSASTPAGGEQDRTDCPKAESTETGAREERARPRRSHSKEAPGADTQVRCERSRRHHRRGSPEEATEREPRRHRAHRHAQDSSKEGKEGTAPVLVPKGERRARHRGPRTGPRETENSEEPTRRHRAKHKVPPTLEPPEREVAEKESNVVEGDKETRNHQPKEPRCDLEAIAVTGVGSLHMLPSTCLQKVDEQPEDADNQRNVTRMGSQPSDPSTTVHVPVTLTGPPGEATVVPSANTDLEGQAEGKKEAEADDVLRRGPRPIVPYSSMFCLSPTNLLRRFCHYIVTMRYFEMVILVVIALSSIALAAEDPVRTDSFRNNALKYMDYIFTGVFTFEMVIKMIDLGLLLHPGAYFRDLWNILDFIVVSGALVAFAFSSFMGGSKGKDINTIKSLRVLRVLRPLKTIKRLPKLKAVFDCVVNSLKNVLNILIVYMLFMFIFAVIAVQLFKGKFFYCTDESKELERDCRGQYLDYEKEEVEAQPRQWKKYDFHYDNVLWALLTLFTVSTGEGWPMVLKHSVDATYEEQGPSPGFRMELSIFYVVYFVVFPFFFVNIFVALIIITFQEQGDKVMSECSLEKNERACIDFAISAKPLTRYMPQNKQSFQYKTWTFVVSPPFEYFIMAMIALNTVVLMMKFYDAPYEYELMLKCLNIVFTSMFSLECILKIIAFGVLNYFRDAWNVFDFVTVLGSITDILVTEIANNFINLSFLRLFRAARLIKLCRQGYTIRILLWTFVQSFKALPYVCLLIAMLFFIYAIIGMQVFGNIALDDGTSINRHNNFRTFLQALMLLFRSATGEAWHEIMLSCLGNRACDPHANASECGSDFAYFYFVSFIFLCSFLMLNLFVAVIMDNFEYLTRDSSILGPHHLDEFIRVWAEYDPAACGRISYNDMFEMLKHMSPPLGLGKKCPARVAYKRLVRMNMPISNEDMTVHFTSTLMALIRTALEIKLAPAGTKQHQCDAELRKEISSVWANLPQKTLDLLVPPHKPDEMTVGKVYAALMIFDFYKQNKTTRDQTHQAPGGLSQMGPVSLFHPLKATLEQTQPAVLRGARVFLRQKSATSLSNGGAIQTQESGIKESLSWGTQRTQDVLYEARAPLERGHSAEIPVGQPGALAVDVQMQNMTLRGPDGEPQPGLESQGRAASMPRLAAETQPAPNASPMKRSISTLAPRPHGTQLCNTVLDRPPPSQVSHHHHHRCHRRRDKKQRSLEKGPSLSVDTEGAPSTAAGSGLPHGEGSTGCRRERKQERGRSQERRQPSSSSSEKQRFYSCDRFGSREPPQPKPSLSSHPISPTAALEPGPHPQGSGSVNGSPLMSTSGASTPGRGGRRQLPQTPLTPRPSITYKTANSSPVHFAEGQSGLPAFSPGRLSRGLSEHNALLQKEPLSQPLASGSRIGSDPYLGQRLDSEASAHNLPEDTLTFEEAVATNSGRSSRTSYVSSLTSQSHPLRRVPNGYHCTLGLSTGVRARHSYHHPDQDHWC
T1 sequence (P54287 whole entry partner): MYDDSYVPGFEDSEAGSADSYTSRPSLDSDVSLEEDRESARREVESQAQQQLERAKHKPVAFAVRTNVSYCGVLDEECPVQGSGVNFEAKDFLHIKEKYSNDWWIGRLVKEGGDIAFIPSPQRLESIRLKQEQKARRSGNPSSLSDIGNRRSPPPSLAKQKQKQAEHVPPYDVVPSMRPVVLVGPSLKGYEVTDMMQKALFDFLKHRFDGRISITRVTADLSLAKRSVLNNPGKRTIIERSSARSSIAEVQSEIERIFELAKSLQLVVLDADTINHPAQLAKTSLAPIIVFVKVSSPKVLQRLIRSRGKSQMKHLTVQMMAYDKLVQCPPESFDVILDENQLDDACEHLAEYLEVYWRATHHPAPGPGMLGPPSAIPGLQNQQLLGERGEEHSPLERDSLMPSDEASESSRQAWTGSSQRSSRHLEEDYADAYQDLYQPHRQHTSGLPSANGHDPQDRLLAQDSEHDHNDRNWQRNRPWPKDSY
T1 sequence (P54290 25-1091 partner): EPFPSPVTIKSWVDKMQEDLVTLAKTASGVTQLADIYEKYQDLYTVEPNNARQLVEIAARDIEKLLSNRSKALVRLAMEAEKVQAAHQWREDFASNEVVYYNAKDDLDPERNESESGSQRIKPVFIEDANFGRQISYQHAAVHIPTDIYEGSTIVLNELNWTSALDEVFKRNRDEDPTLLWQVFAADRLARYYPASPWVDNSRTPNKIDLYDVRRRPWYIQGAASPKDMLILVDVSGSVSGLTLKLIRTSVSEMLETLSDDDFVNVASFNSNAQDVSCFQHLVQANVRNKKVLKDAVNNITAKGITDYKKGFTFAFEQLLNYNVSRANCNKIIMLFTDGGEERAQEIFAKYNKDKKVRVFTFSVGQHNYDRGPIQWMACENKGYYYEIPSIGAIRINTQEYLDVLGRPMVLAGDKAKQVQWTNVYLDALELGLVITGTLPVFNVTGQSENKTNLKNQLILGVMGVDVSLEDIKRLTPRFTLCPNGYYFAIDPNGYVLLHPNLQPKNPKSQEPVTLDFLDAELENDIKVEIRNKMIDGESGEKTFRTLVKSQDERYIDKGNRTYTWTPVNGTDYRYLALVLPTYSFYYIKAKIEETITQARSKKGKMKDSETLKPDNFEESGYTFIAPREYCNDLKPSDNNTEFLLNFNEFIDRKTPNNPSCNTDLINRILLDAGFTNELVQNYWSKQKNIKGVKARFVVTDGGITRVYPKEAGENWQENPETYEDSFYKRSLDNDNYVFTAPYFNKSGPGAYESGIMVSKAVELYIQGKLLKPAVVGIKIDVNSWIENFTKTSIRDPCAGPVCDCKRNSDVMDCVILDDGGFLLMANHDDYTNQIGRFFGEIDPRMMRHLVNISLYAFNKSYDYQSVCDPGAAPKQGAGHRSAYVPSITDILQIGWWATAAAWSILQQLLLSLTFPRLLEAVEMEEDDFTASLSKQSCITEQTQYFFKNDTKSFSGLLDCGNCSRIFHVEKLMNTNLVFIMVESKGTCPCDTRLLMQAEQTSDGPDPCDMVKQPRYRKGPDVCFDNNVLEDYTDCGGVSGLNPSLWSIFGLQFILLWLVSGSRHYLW

other NaV1.x channels = assay: Whole-cell patch clamp, other NaV1.x channels; type: cell-based
Penk mRNA = assay: Penk (proenkephalin) mRNA expression in cultured DRG neurons; type: cell-based; settings: exposure 6 hr, cultured rat DRG neurons
NaV1.7 = type: cell-based, rat
[1] = tested on: spared nerve injury (SNI) rats; assay: Spared nerve injury (SNI) model of neuropathic pain; type: in vivo, rat
Protocol: FIG. 4: AZ194 reduces spared nerve injury (SNI) induced nociceptive behaviors. Rats received spared nerve injury (SNI) on the left hind paw. […] Right panel: Area under the curve (AUC), using the trapezoid method, for PWT (summary for data shown in the time course on the left) are shown. *p<0.05, one-way analysis of variance with Dunnett's post hoc analysis. Error bars represent mean±s.e.m.
AZ194 was evaluated for efficacy in the spared nerve injury (SNI) model (see, e.g., Decosterd I, & Woolf C J (2000) Pain 87: 149-158) of neuropathic pain. […] Such experiments also determined the AUC to assess effects over the full experimental duration.
Under isoflurane anesthesia (5% induction, 2.5% maintenance in 2 L/min air), skin on the lateral surface of the left hind thigh was incised. The biceps femoris muscle was bluntly dissected to expose the three terminal branches of the sciatic nerve (see, e.g., Decosterd I, & Woolf C J (2000) Pain 87: 149-158). Briefly, the common peroneal and tibial branches were tightly ligated with 4-0 silk and axotomized 2.0 mm distal to the ligation. Sham animals underwent the same operation; however the nerves were exposed and not ligated. Closure of the incision was made in two layers. The muscle was sutured once with 5-0 absorbable suture and skin was auto-clipped. Animals were allowed to recover for 5-7 days before any testing.

hERG = hERG (Homo sapiens, UniProt Q12809); settings: 20 μM, hEK293 cells; listed as ReN 194
NaV1.7 channels = assay: Sodium currents of sensory neurons incubated with compound for indicated times (direct block test); type: cell-based; set-up: dose or concentration left out as unconfirmed; settings: primary rat sensory neurons
Protocol: Primary rat sensory neurons were incubated for the indicated times with DMSO 0.1% or […] AZ194. Left: Bar graphs represent normalized peak sodium current density±s.e.m. from at least 14 cells per condition from 3 separate rats.*p<0.05, Kruskal-Wallis test. Middle: current voltage relationship of sodium currents from rat sensory neurons incubated for the indicated times with DMSO 0.1% or […] AZ194. Right: biophysical properties of inactivation were not altered by AZ194 at any of the time points versus control.
Primary rat sensory neurons were incubated for the indicated times with DMSO 0.1% or 5 mM AZ194.

TTX-S NaV1.7 currents = type: cell-based, human
Ubc9 = Ubc9 (Homo sapiens, UniProt P63279); assay: 1D 1H STD NMR binding to Ubc9
Ubc9, sequence (P63279 whole entry, species assumed): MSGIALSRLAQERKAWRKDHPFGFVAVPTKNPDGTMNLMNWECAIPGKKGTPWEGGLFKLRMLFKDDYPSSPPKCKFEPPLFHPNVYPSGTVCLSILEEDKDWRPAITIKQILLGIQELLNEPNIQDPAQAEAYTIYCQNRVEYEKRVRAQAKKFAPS

NaV channels = assay: Frequency (use)-dependent block of sodium current in DRG neurons; type: cell-based; settings: 5 μM, thirty test pulses at 10 Hz, listed as ReN 206
Protocol: Control DRG neurons were treated with 0.03% DMSO (squares). Thirty, identical test pulses were applied at 10 Hz. The difference in available current was calculated by dividing the peak current at any given pulse (pulseN) by the peak current in response to the initial pulse (pulsei). Data are from 5-6 cells per condition.
The ability to block Na^+ currents in an activity- or use-dependent manner is a useful property for drugs since it allows for preferential decreases in sodium channel availability during high—(i.e., hyperexcitable ‘pain’ neurons) but not low-frequency firing.

Compound | binding to CRMP2 (STD NMR) (CRMP2) | effect on peak CaV2.2 currents (CaV2.2) | effect on peak CaV2.2 currents (CaV2.2; listed as ReN 194) | effect on other NaV1.x channels (other NaV1.x channels) | effect on other NaV1.x channels (other NaV1.x channels; highest concentration of 20 μM) | Penk mRNA (proenkephalin), normalized to L27 ribosomal RNA (Penk mRNA) | inhibition of NaV1.7 (concentration-response curve) (NaV1.7) | paw withdrawal thresholds (PWTs) ([1]; intrathecal injection 0.5 μg/5 μl) | area under the curve (AUC) for PWT ([1]; spinal administration, full experimental duration) | effect on hERG K+ currents (hERG) | biophysical properties of inactivation (NaV1.7 channels; any time point versus control) | direct block of NaV1.7 channels (normalized peak sodium current density) (NaV1.7 channels; indicated incubation times) | reduction of TTX-S NaV1.7 currents (TTX-S NaV1.7 currents) [%] | binding to Ubc9 (STD NMR) (Ubc9) | frequency (use)-dependent decrease in current amplitude (NaV channels)
COc1cc(C(=O)N2CCC(c3nc4ccccc4n3Cc3cccc(F)c3)CC2)ccc1OCc1cccc(F)c1 [AZ194, (4-(1-(3-fluorobenzyl)-1H-benzo[d]imidazol-2-yl)piperidin-1-yl)(4-((3-fluorobenzyl)oxy)-3-methoxyphenyl)methanone] | binds | no inhibition | did not affect | not affected | no inhibition | upregulates; also recorded: increased | nanomolar potency | significantly increased; also recorded: significantly reversed | reversal of mechanical allodynia | did not affect | not altered | does not directly block | ~66 | No binding was observed | –
Fc1ccc(Oc2ccc(CN3CCC(c4nc5ccccc5[nH]4)CC3)cc2)cc1 [AZ206, 2-(1-(4-(4-fluorophenoxy)benzyl)piperidin-4-yl)-1H-benzo[d]imidazole] | – | – | – | – | – | – | – | – | – | – | – | – | – | – | use-dependent inhibitor; also recorded: decrease in current amplitude
COc1cc(C(=O)N2CCC(c3nc4ccccc4n3Cc3cccc(F)c3)CC2)ccc1OCc1cccc(F)c1 [drawing 20] | – | – | – | – | – | upregulation | – | – | – | – | – | – | – | – | –
